Experimental data published in patent US20120065614A1 (UNIVERSITY OF NORTH TEXAS, priority 2010, published 2012).
Read-outs that look alike come from different tables or passages of the source.

What was measured:
[1] = Steady-state photoluminescence spectra (emission/excitation maxima); type: physicochemical
Description: (§1) Photoluminescence characterization: All photoluminescence studies were carried with the PTI spectrofluorometer described below. For titrations, 2.5-mL aliquots were placed in the quartz cuvette and 0.1 mL of gel was added at every titration point with magnetic stirring. Titration data were plotted as I/Io vs. volume of gel added (where I=intensity of sample after addition of gel and 1o=intensity of pure aqueous gold phosphor solution). Lifetime data were analyzed using a xenon flash lamp or N2 laser systems for both the sample and a scatterer solution used to generate the instrument response function (IRF) used for deconvolution.
Spectroscopic equipment: Steady-state luminescence spectra were acquired with a PTI QuantaMaster Model QM-4 scanning spectrofluorometer equipped with a 75-watt xenon lamp. The UVN is absorption spectra were measured at 1-nm resolution on either a diode array spectrometer (Hewlett-Packard, model 8543) or a Perkin-Elmer Lambda-900 double-beam UVN is/NIR absorption spectrophotometer.

[2] = solution, literature results, fitting error not given; cited from earlier work
[3] = cited from earlier work
[4] = cited from earlier work; for emission band maximum: literature
[5] = Time-resolved phosphorescence lifetime; type: physicochemical
Description: as §1

Compound: O=S(=O)([O-])c1cccc([PH](c2cccc(S(=O)(=O)[O-])c2)(c2cccc(S(=O)(=O)[O-])c2)[Au]([PH](c2cccc(S(=O)(=O)[O-])c2)(c2cccc(S(=O)(=O)[O-])c2)c2cccc(S(=O)(=O)[O-])c2)[PH](c2cccc(S(=O)(=O)[O-])c2)(c2cccc(S(=O)(=O)[O-])c2)c2cccc(S(=O)(=O)[O-])c2)c1 [Na8[Au(TPPTS)3], tris[tris(3,3′,3″-trisulfonatophenyl)phosphine]aurate(I)]
- excitation maximum ([1]; aqueous solution of 0.001M): 292 nm
- emission maximum ([1]; solid state): 500 nm
- excitation maximum ([1]; solid state): 356 nm
- PL, soln. (RT), emission, corrected ([1]; solution, RT, Corr.): nm exc.; 525 nm em.
- PL, soln. (RT), excitation, corrected ([1]; solution, RT, Corr.): 285 nm
- PL, soln. (RT), emission, uncorrected ([1]; solution, RT, Uncorr.): 510 nm
- PL, soln. (RT), excitation, uncorrected ([1]; solution, RT, Uncorr.): Uncorr.: 296 nm exc.;
- τ, soln. (RT) [2]: 1.9 μs (fitting error not given)
- water solubility [3]: highly water soluble
- emission band maximum ([4]; solid state at 77° K): 486 nm
- emission band maximum ([4]; solid state at room temperature): 494 nm
- PL, soln. (RT), emission ([4]; solution, RT, literature results (broad)): 513 nm
- PL, soln. (RT), excitation ([4]; solution, RT, literature results): 293 nm
- phosphorescence lifetime ([5]; after addition of PNIPAM hydrogels to the aqueous solution): 2.6 μs
- phosphorescence lifetime ([5]; aqueous solution before addition of PNIPAM hydrogels): 1.4 μs
- τ, soln. (RT) ([5]; aqueous solution, RT): 2.04 ± 0.02 μs (FIGS.
